Three molecules from US12331035B2, “Bicyclic compound and use thereof” (SK BIOPHARMACEUTICALS CO., LTD., priority 2019, dated 2025) can be followed below.

By IC50 is commonly meant the concentration that gives 50% inhibition. Lower therefore signals higher potency.

The target in experiment [1] is T1, PRMT5-MEP50 enzyme complex (Homo sapiens, UniProt O14744).
T1 construct: purchased BPS Bioscience (USA) 51045
In words: In vitro PRMT5 enzyme activity assay (methylation of histone H4 arginine H4R3, ELISA absorbance at 450 nm). Conditions: S-adenosylmethionine, histone H4 peptide, 2 hours at room temperature, 8 points 10 μM to 0.128 nM. It is filed as biochemical. In short, it runs like this:
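Human PRMT5-MEP50 (5 μg/mL working stock) with 2 μM SAM stock on histone H4 (1-20) peptide-coated plates, compound 8-point 1:5 series from 10 μM, 2 h at room temperature. H4R3 methylation detected by antibody/HRP ELISA, absorbance 450 nm; IC50 calculated.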
A general note: In an ELISA, binding on a coated surface is turned into a signal by an enzyme label.

Another experiment concerns SDMA levels in the tumor. In words: Test for in vivo target inhibitory activity (SDMA levels in U87MG tumor). Conditions: U87MG tumor cells implanted subcutaneously in nude mice, oral 25 or 50 mg/kg 1-2 times daily for one week. As for the experimental part:
Test for In Vivo Target Inhibitory Activity
After U87MG tumor cells were implanted subcutaneously in nude mice, a PRMT5 inhibitor was administered orally (25 or 50 mg/kg) 1-2 times daily for one week, and then the degree to which SDMA levels in the tumor decreased was measured.
Reagents: Bradford's solution (Catalog No. 500-0006) was purchased from Bio-rad (USA). SDMA antibody (Catalog No. 13222s) was purchased from Cell Signaling Technology (USA). SmD3 antibody (Catalog No. ap12451a) was purchased from Abgent (USA), and secondary antibody (Catalog No. ab6721) and TMB substrate (Catalog No. ab210902) were purchased from Abcam (UK).
Experimental procedure: The tumor tissues transplanted into the mice were excised, the cells were lysed, and then quantified with Bradford's solution. 5-10 μg of protein per sample was diluted with carbonate-bicarbonate buffer and dispensed into a 96-well plate and reacted at room temperature for 2 hours. After washing with phosphate buffered saline (PBST) containing 0.05% Tween-20 3 times, 200 μL of PBST containing 5% bovine serum albumin (BSA-PBST) was added and reacted at room temperature for 2 hours. After washing with PBST 3 times, the SDMA antibody and the SmD3 antibody were diluted in BSA-PBST, and 100 μL of each was dispensed onto the plate and reacted at 4° C. overnight. After washing with PBST 3 times the next day, 100 μL of the secondary antibody diluted in BSA-PBST was added and reacted at room temperature for 1 hour. After washing with PBST 3 times, 100 μL of TMB substrate was added and reacted at room temperature for 10-20 minutes, and 100 μL of 1N sulfuric acid solution was added to terminate the reaction. Then, the absorbance at 450 nm was measured to calculate the degree of SDMA inhibition by the compound. (+++: more than 70%, ++: more than 30% and 70% or less, +: 30% or less)

T1 sequence (O14744 2-637 limits assumed): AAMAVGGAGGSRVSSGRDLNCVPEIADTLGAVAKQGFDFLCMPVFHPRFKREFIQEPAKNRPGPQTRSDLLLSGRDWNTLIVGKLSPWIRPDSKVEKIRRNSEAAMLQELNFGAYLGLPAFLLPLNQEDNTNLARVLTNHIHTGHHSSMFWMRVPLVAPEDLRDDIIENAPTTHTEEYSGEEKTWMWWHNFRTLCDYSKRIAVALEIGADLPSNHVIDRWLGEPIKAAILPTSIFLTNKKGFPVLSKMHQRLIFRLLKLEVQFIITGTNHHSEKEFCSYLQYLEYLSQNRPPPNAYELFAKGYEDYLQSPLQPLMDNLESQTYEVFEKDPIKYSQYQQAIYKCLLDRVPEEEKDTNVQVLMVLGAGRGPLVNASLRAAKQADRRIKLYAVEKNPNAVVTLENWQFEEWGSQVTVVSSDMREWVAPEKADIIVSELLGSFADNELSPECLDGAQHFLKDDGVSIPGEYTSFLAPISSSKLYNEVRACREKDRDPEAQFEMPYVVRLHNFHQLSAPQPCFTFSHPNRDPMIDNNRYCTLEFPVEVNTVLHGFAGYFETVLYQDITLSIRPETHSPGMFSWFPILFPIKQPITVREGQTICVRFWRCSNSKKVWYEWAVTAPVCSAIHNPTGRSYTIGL
T1 sequence (Q9BQA1 2-342 partner limits assumed): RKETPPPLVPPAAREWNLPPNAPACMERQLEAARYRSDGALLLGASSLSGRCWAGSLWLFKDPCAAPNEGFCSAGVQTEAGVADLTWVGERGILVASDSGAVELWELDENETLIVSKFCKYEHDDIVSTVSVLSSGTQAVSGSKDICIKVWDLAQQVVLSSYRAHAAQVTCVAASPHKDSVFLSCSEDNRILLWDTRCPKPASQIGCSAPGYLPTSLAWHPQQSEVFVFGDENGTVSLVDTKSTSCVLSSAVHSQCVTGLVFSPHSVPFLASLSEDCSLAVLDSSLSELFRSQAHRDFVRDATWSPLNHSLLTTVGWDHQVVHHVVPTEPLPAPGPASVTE

In experiment [1], `C[C@@H]1CN(c2ccc3c(c2)CCN(C[C@H](O)CN2CCc4ccccc4C2)C3=O)C[C@H](C)O1` [Example 14, 2-[(2R)-3-(3,4-dihydro-1H-isoquinolin-2-yl)-2-hydroxy-propyl]-6-[(2R,6S)-2,6-dimethylmorpholin-4-yl]-3,4-dihydroisoquinolin-1-one] registered an IC50 of 100 to 1000 nM. Moreover, the SDMA inhibition result in the experiment with SDMA levels in the tumor is reported as “+++ (+++: more than 70%)”.
Molecule `O=CN1CCN(c2ccc3c(c2)CCN(C[C@H](O)CN2CCc4ccccc4C2)C3=O)CC1` [Example 87, 4-[2-[(2R)-3-(3,4-dihydro-1H-isoquinolin-2-yl)-2-hydroxy-propyl]-1-oxo-3,4-dihydroisoquinolin-6-yl]piperazine-1-carbaldehyde] displayed an IC50 in experiment [1] of 1 to 100 nM. Besides, the SDMA inhibition entry with SDMA levels in the tumor was “++ (++: more than 30% and 70% or less)”.
Consider `O=C1c2ccc(N3CCOCC3)cc2CCN1C[C@H](O)CN1CCc2ccccc2C1` [Example 4, 2-[(2R)-3-(3,4-dihydro-1H-isoquinolin-2-yl)-2-hydroxy-propyl]-6-morpholino-3,4-dihydroisoquinoline-1-one], for which the IC50 in experiment [1] was in the range of 1 to 100 nM. The SDMA inhibition result in the experiment on SDMA levels in the tumor was “++ (++: more than 30% and 70% or less)”.
